Reference: publication PMC8364686, “Safety, tolerability, pharmacokinetics and pharmacodynamics of single oral doses of BI 187004, an inhibitor of 11beta-hydroxysteroid dehydrogenase-1, in healthy male volunteers with overweight or obesity” (Clinical Diabetes and Endocrinology, 2021)
Values joined by “and” are separate entries in the source; they are usually repeats but may differ in a detail not shown here. Equal entries are not always repeated.

Test: Urinary excretion of BI 187004 (LC–MS/MS)
Type: in vivo, human

Compound: N#Cc1ccc2c(c1)[C@H]1CCCN(C(=O)c3ccc4[nH]cnc4c3)[C@H]1C2 [BI 187004]
- Fraction of dose excreted in urine (renal excretion), range across dose groups (0–72 h collection interval): 3–5% and 3.00–4.93%
- fe0-72 h (fraction eliminated in urine from 0 to 72 h) (5 mg single oral dose): 3.00%
- fe0-72 h (fraction eliminated in urine from 0 to 72 h) (10 mg single oral dose): 4.03%
- fe0-72 h (fraction eliminated in urine from 0 to 72 h) (20 mg single oral dose): 4.93%
- fe0-72 h (fraction eliminated in urine from 0 to 72 h) (40 mg single oral dose): 4.21%
- fe0-72 h (fraction eliminated in urine from 0 to 72 h) (80 mg single oral dose): 4.55%
- fe0-72 h (fraction eliminated in urine from 0 to 72 h) (160 mg single oral dose): 4.75%
- fe0-72 h (fraction eliminated in urine from 0 to 72 h) (240 mg single oral dose): 4.88%
- fe0-72 h (fraction eliminated in urine from 0 to 72 h) (360 mg single oral dose): 4.25%
